{"source": "patent US10441568B2", "about": "“Nitroxide radicals for the treatment of diseases of the respiratory tract” (priority 2015, dated 2019)", "key": {"[1]": {"tested_on": "bleomycin-induced pulmonary fibrosis", "experiment": "Collagen content in lung tissue, bleomycin pulmonary fibrosis model", "assay_type": "in vivo, mice", "details": "3-CP 150 mg/kg daily intranasal, 14 days, FIG. 20", "description": "(§1) Bronchoalveolar lavage (BAL) fluid (also referred to herein as “BALf”) and bronchial submucosal inflammation are characteristic features of asthma. Mice were euthanized with an overdose of 50 mg/kg pentobarbital and ice-cold phosphate buffer saline (PBS) (0.6 ml) was instilled into the lungs. BAL fluid was obtained by three aspirations via tracheal cannulation, centrifuged, and the supernatant collected and stored at −70° C. Cell pellets were re-suspended in PBS and 100 μl aliquots placed onto slides and centrifuged (200 g, 4° C., 10 minutes) in a cytospin machine. Induction of oxidative stress was evaluated using a 2′,7′-dichlorofluorescein fluorescence assay, and total IgE, IgG2a, panel of cytokines, transforming growth factors, collagen, protein nitration and lipid peroxidation were measured using commercial kits according to the manufacturer's recommendations. A Sircol™ collagen assay kit was obtained from Biocolor Life Sciences Assays, a protein nitration assay kit was obtained from Abcam, and other assay kits were obtained from PeproTech Asia. […]\nThe degree of fibrosis was evaluated by measuring collagen content in lung tissue."}, "[2]": {"tested_on": "IL-4", "experiment": "IL-4 level in OVA asthma model", "assay_type": "in vivo, BALB/c mice", "description": "(§2) All experimental procedures were carried out in accordance with the NIH Guidelines for the Care and Use of Laboratory Animals. Specific pathogen-free (SPF) male BALB/c mice (6-7 weeks of age, 18-22 grams), routinely screened serologically for relevant respiratory pathogens, were maintained in an animal housing facility for 1 week before use and given access to food and water ad libitum. Animals were randomly assigned to the indicated experimental groups, and sensitized with two intraperitoneal (IP) injections (20 μg ovalbumin (OVA) emulsified in 2 mg aluminum hydroxide (an adjuvant) in 200 μl phosphate buffer saline (PBS), pH 7.4), on days 1 and 10.\n(§3) After another week, the animals were challenged by exposure to ovalbumin (OVA) aerosol (1%, w/v, in PBS) for 30 minutes each day on days 17, 18 and 19, in order to elicit an inflammatory reaction in the lungs characterized by airway hyper-responsiveness (AHR), an influx of inflammatory cells (particularly eosinophils), and increased pulmonary levels of various cytokines and transforming growth factors, protein nitration and lipid peroxidation.\nBronchoalveolar lavage (BAL) fluid (also referred to herein as “BALf”) and bronchial submucosal inflammation are characteristic features of asthma. Mice were euthanized with an overdose of 50 mg/kg pentobarbital and ice-cold phosphate buffer saline (PBS) (0.6 ml) was instilled into the lungs. BAL fluid was obtained by three aspirations via tracheal cannulation, centrifuged, and the supernatant collected and stored at −70° C. Cell pellets were re-suspended in PBS and 100 μl aliquots placed onto slides and centrifuged (200 g, 4° C., 10 minutes) in a cytospin machine. Induction of oxidative stress was evaluated using a 2′,7′-dichlorofluorescein fluorescence assay, and total IgE, IgG2a, panel of cytokines, transforming growth factors, collagen, protein nitration and lipid peroxidation were measured using commercial kits according to the manufacturer's recommendations. A Sircol™ collagen assay kit was obtained from Biocolor Life Sciences Assays, a protein nitration assay kit was obtained from Abcam, and other assay kits were obtained from PeproTech Asia.\nThe efficacy of oral administration of 3-CP (1 weight percent in chow) during the sensitization period and/or challenge period was then compared to IP injection (˜300 mg/kg, 0.5 hour before the OVA challenge) or intranasal instillation (˜150 mg/kg, 0.5 hour before the OVA and 6 hours later) of 3-CP, as well as to dexamethasone treatment (1 mg/kg, 3 daily IP injections, 0.5 hour prior to the challenge with OVA aerosol).\nIn order to assess the effect of 3-CP on inflammatory signaling pathways, […] to procedures described hereinabove, upon oral, intranasal or IP administration of 3-CP."}, "[3]": {"tested_on": "mice with OVA-induced chronic asthma", "experiment": "Inflammatory cell counts in BAL fluid, severe (chronic) asthma model", "assay_type": "in vivo", "description": "In a longer (chronic) murine model, mice were challenged 3 times a week for 4-5 weeks.\nBronchoalveolar lavage (BAL) fluid (also referred to herein as “BALf”) and bronchial submucosal inflammation are characteristic features of asthma. Mice were euthanized with an overdose of 50 mg/kg pentobarbital and ice-cold phosphate buffer saline (PBS) (0.6 ml) was instilled into the lungs. BAL fluid was obtained by three aspirations via tracheal cannulation, centrifuged, and the supernatant collected and stored at −70° C. Cell pellets were re-suspended in PBS and 100 μl aliquots placed onto slides and centrifuged (200 g, 4° C., 10 minutes) in a cytospin machine. Induction of oxidative stress was evaluated using a 2′,7′-dichlorofluorescein fluorescence assay, and total IgE, IgG2a, panel of cytokines, transforming growth factors, collagen, protein nitration and lipid peroxidation were measured using commercial kits according to the manufacturer's recommendations. […]\n3-CP was administered orally (1 weight percent in chow) during the entire experiment, and dexamethasone (Dex) was administered via IP injection (1 mg/kg) one hour before each challenge. Inflammatory cell counts and pulmonary collagen content were then evaluated according to procedures described hereinabove, in order to assess effects on inflammation and remodeling, respectively."}, "[4]": {"tested_on": "ovalbumin-induced murine model of asthma", "experiment": "Lung resistance / airway hyper-responsiveness to methacholine in OVA asthma model", "assay_type": "in vivo, BALB/c mice", "description": "as §2, §3\nThe features of allergic inflammation typically reached their peak a day or two after the final exposure. Mice were then subjected to one of the following treatments: (i) sham-sensitization plus challenge with PBS; (ii) positive control-sensitization plus challenge with OVA; (iii) sensitization plus challenge with OVA and various indicated treatments (e.g., with nitroxide or dexamethasone), including different modes (oral, IP, intranasal, inhalation), time windows (sensitization stage, challenge stage, both stages and after the last challenge), and doses of nitroxide administration.\nOne day after the final challenge, respiratory activity and airway hyper-responsiveness (AHR) of experimental animals were evaluated. Whole body plethysmographs for enhanced pause (Penh) measurements are often used for assessment of AHR. However, critics have questioned the validity of Penh measurements, which supposedly measure airway obstruction of live non-sedated mice, stating that it is likely to measure the distress of the animal rather than actual obstruction. […] In brief, mice were sedated with an intraperitoneal (IP) injection of xylazine hydrochloride and anaesthetized with IP injection of pentobarbital. Subsequently, the animals were tracheostomized using an 18 gauge cannula, ventilated with a FlexiVent™ apparatus (SCIREQ), and muscle paralysis was induced with pancuronium bromide. The mice were ventilated in a quasi-sinusoidal fashion with the following settings: a tidal volume of 10 ml/kg, maximum inflation pressure of […] (30 cm H2O), a positive end expiratory pressure (PEEP) of 3 millibar and a frequency of 150 per minute. Following an equilibration period of 3 minutes of tidal ventilation, two lung inflations to a transrespiratory pressure of 2.5 millibar were performed and baseline measurements were taken. Airway hyper-responsiveness (AHR) was determined by aerosolizing increasing concentrations of methacholine. After baseline determination of airway resistance, mice were challenged with 0 to 64 mg/mL methacholine nebulized directly into the ventilatory circuit using an AeroNeb™ Lab nebulizer system (SCIREQ). Two models of respiratory mechanics were used to assess lung resistance: a linear 1st-order single compartment model and a constant-phase model. All data points were collected with FlexiVent™ software (SCIREQ). […]"}, "[5]": {"tested_on": "bleomycin-induced pulmonary fibrosis", "experiment": "Inflammatory cell counts in BAL fluid, bleomycin pulmonary fibrosis model", "assay_type": "in vivo, mice", "details": "3-CP 150 mg/kg daily intranasal, 14 days, FIG. 18", "description": "as §1\nThe effect of 3-CP on bleomycin-induced inflammation was evaluated by determining lung resistance, total inflammatory cell count, and TGF-β1 levels, according to procedures described hereinabove."}, "[6]": {"details": "oral, 1 weight percent in chow, FIG. 3"}}, "data": [{"smiles": "CC1(C)CC(C(N)=O)C(C)(C)N1[O]", "note": "(stereo not shown) [3-CP, 3-Carbamoyl-2,2,5,5-tetramethyl-pyrrolidin-1-oxyl]", "values": [{"measurement": "effect on bleomycin-induced pulmonary fibrosis, pulmonary collagen content", "setting": "[1]", "result": "significantly inhibited"}, {"measurement": "effect on OVA-induced increase in the level of IL-4", "setting": "[2]; FIG. 7A and Table 1", "result": "inhibited"}, {"measurement": "IL-4 level", "setting": "[2]; OVA IP-C: 3-CP intraperitoneal during challenge", "result": 1.70, "unit": "ng/mg"}, {"measurement": "IL-4 level", "setting": "[2]; OVA oral-C: 3-CP oral during challenge", "result": 2.03, "unit": "ng/mg"}, {"measurement": "IL-4 level", "setting": "[2]; OVA oral-S&C: 3-CP oral during sensitization and challenge", "result": 1.65, "unit": "ng/mg"}, {"measurement": "IL-4 level", "setting": "[2]; OVA oral-S: 3-CP oral during sensitization", "result": 2.44, "unit": "ng/mg"}, {"measurement": "modulating IL-4 level, oral compared with IP 3-CP", "setting": "[2]; oral administration vs IP injection", "result": "consistently more effective than IP injection of 3-CP"}, {"measurement": "effect on inflammatory cell counts in BAL fluid", "setting": "[3]; 3-CP oral 1 weight percent in chow during entire experiment, 4 weeks OVA challenge, FIGS. 15A and 15B", "result": "reduced inflammatory cell counts, and especially eosinophil counts"}, {"measurement": "reducing BAL inflammatory cell counts, 3-CP compared with dexamethasone", "setting": "[3]; 3-CP oral, dexamethasone 1 mg/kg IP before each challenge", "result": "at least as effective as dexamethasone"}, {"measurement": "lung resistance, oral 3-CP in both periods compared with other regimens", "setting": "[4]; oral 1 weight percent in chow during sensitization and challenge periods, FIG. 6", "result": "more effective than IP injection or intranasal instillation of 3-CP, oral administration of 3-CP during the sensitization period or challenge period alone, or treatment with dexamethasone"}, {"measurement": "effect on methacholine-induced increase in lung resistance", "setting": "[4]; [6]", "result": "suppressed methacholine-induced increase in lung resistance"}, {"measurement": "lung resistance suppression, 3-CP compared with TPL", "setting": "[4]; [6]", "result": "considerably more effective than TPL"}, {"measurement": "effect on bleomycin-induced increase in inflammatory cell counts in BAL fluid", "setting": "[5]", "result": "significantly reduced"}]}]}
